In US11389446B2, “Theranostic agents” (THE HONG KONG UNIVERSITY OF SCIENCE AND TECHNOLOGY, priority 2017, dated 2022):

Key:
Type in all cases: physicochemical
[1] = Photostability under continuous 808 nm laser irradiation; settings: PBS pH 7.4, 808 nm laser 0.8 W/cm^2, 15 min
Experimental: (§1) For the photostability study, PBS solutions (pH 7.4) of TPA-T-TQ ONPs and ICG were irradiated under 808-nm laser (0.8 W/cm^2), and the absorption spectra were measured at different time points. For the anti-photobleaching study, the temperatures of the sample solutions were recorded during five circles of heating and cooling. In one heating-cooling circle, the NIR laser first irradiated the samples for 5 min to reach a steady state, then the laser was removed and the samples were naturally cooled down to ambient temperature in 6 min.
(§2) For the RONS-stability study, two kinds of RONS were used, i.e., ONOO^− and .OH, which were prepared according to the literature. The absorption and photoluminescence spectra were recorded before and after addition of 0.4 mM of RONS. […] Then the photostability of TPA-T-TQ ONPs was evaluated along with ICG under continuous 808 nm laser irradiation (0.8 W/cm^2) by recording the apparent colors and absorption spectra after laser irradiation for different times. […]
(§3) Then, the anti-photobleaching properties of TPA-T-TQ ONPs and ICG were evaluated by alternative heating and cooling processes (the NIR laser first irradiated the samples for 5 min to heat them up, then the laser was removed, and the samples were naturally cooled down to ambient temperature in 6 min).

[2] = RONS-stability study; settings: PBS, ICG read at 780 nm
Experimental: For the RONS-stability study, two kinds of RONS were used, i.e., ONOO^− and .OH, which were prepared according to the literature. The absorption and photoluminescence spectra were recorded before and after addition of 0.4 mM of RONS. The stabilities of the contrast agents in terms of thermal and photothermal stabilities as well as photobleaching and RONS resistances are crucial for PAI/PTT applications in vivo because incorrect or misleading signals, weakened therapeutic efficacy, and harmful side effects can result if the structure of the agent is destroyed, especially in living systems. Thermogravimetric analysis (TGA) was first carried out to measure the thermal stability of TPA-T-TQ. The decomposition temperature for 5% weight loss of TPA-T-TQ was above 400° C. […] Then the photostability of TPA-T-TQ ONPs was evaluated along with ICG under continuous 808 nm laser irradiation (0.8 W/cm^2) by recording the apparent colors and absorption spectra after laser irradiation for different times. […]
Another important issue related to in vivo applications is the physiological stability against highly reactive molecules such as RONS. […] Therefore, the stability of TPA-T-TQ ONPs and ICG in the presence of two kinds of RONS, peroxynitrite (ONOO^−) and hydroxyl radical (.OH), were measured under physiological conditions. […]

[3] = Photothermal performance in PBS under 808 nm laser; settings: PBS pH 7.4, 100 μM, 808 nm laser 0.8 W/cm^2, 5 min
Experimental: The PBS solution (pH 7.4) of TPA-T-TQ ONPs and ICG in different concentrations were continuously exposed to NIR laser of 808 nm with a power intensity of 0.8 W/cm^2 for 5 min. The temperature was measured every 20 s and stopped until the temperature nearly reached a plateau. The corresponding IR thermal images were also recorded. To evaluate the photothermal conversion property, we quantitatively measured the temperature change of TPA-T-TQ ONP solution at different concentrations as a function of 808 nm laser (0.8 W/cm^2) irradiation time. As depicted in FIG. 9B, temperature increases very fast initially, and reaches a plateau after 3 min laser irradiation. It is noted that the eventual temperature at the plateau depends on the ONP concentration. The temperature increase of ONPs and ICG solutions upon exposure to 808 nm laser irradiation was compared. […] The difference in temperature elevation of the two samples at various irradiation times can be intuitively visualized from the infrared (IR) thermal images (FIG. 9A).

[4] = Anti-photobleaching study, five circles of heating-cooling; settings: 100 μM, 808 nm 0.8 W/cm^2
Experimental: as §1, §3

[5] = Thermogravimetric analysis (TGA), thermal stability; settings: heating rate 10° C./min, nitrogen atmosphere
Experimental: ^1H (400 MHz) and ^13C (100 MHz) nuclear magnetic resonance (NMR) spectra were recorded on a Bruker AV 400 spectrometer by using CDCl3 or DMSO-d6 as the solvent. High-resolution mass spectra (HRMS) were measured on a GCT premier CAB048 mass spectrometer in MALDI-TOF mode. Thermogravimetric analysis (TGA) measurement was conducted on a TA TGA Q5000 with a heating rate of 10° C./min under nitrogen atmosphere. The UV-vis-NIR absorption spectra were performed on a PerkinElmer Lambda 365 spectrophotometer. The photoluminescence (PL) spectra were conducted using a Horiba Fluorolog-3 spectrofluorometer. Dynamic light scattering (DLS) was performed on a 90 plus particle size analyzer. Transmission electron microscopy (TEM) images were obtained on a JEM-2010F transmission electron microscope with an accelerating voltage of 200 kV.
as §2

[6] = after two circles of heating-cooling

Row | colors and absorption spectra / maximal absorption intensity after NIR light irradiation [1] | maximal absorption intensity relative to the original value after .OH ([2]; 400 μM .OH for 1 min) [%] | maximal absorption intensity relative to the original value after ONOO^− ([2]; 400 μM ONOO^− for 1 min) | temperature increase ΔT in 5 min [3] [°C] | temperature elevation relative to the original value [4, 6] | temperature elevation ΔT after two circles [4, 6] [°C] | temperature elevation ΔT, original value ([4]; first heating) [°C] | decomposition temperature for 5% weight loss [5] | SMILES
1 | nearly drops to zero | ~4 | about 60% | ~43 | about 20% | ~10 | ~44 | – | CC1(C)C(/C=C/C=C/C=C/C=C2\N(CCCCS(=O)(=O)O)c3ccc4ccccc4c3C2(C)C)=[N+](CCCCS(=O)(=O)[O-])c2ccc3ccccc3c21 [ICG, indocyanine green]
2 | – | – | – | – | – | – | – | above 400 °C | Cc1ccc(N(c2ccc(-c3ccc(-c4c5nsnc5c(-c5ccc(-c6ccc(N(c7ccc(C)cc7)c7ccc(C(C)(C)C)cc7)cc6)s5)c5nc(-c6ccccc6)c(-c6ccccc6)nc45)s3)cc2)c2ccc(C(C)(C)C)cc2)cc1 [TPA-T-TQ, 4,4′-((6,7-Diphenyl-[1,2,5]thiadiazolo[3,4-g]quinoxaline-4,9-diyl)bis(thiophene-5,2-diyl))bis(N-(4-(tert-butyl)phenyl)-N-(p-tolyl)aniline)]
